Experimental data from patent US20240262811A1, “BENZIMIDAZOYL GLP-1 RECEPTOR AGONISTS, PHARMACEUTICAL COMPOSITIONS COMPRISING THE SAME, AND METHODS FOR THEIR USE” (Carmot Therapeutics, Inc., priority 2021, published 2024).

Target: T1, human GLP-1 receptor (Homo sapiens, UniProt P43220)
T1 construct: expressed in transfected cells
Experiment: GLP-1R cAMP Assay (HitHunter cAMP accumulation in CHO cells stably overexpressing the human GLP-1 receptor)
Assay type: cell-based
Settings: CHO cells overexpressing human GLP-1 receptor, 30 min treatment, 20-point dose response in triplicate
Protocol: cAMP accumulation was measured in Chinese hamster ovary (CHO) cells stably overexpressing the human GLP-1 receptor using the HitHunter cAMP Assay for Small Molecules Kit (Eurofins). Briefly, cells were grown in Ham's F12 Nutrient Mix with 10% FBS, and lifted with Cell Dissociation Buffer, Enzyme free, PBS based (ThermoFisher). Cells were pelleted, and resuspended in Hank's buffered saline solution with 10 mM HEPES, and 625 μM 3-isobutyl-1-methylxanthine. The anti-cAMP antibody reagent was then added to cells at a 1:2 ratio and 5 μL of mixture was seeded in 384-well small volume white assay plates, at 10,000 cells/well. Cells were then treated with 50 nL compound using an ECHO 550 acoustic dispenser (Labcyte) in a 20-point dose response format in triplicate for 30 min. Cells were then lysed, and detection reagents added according to the manufacturer's protocol. After overnight incubation, luminescence was measured using a Perkin Elmer Envision plate reader. Dose response curves were analyzed using GraphPad Prism 9.0.
Molecular weights are calculated by standard techniques, and mass spectrometry results are reported according to the Examples above.

T1 sequence (P43220 24-463): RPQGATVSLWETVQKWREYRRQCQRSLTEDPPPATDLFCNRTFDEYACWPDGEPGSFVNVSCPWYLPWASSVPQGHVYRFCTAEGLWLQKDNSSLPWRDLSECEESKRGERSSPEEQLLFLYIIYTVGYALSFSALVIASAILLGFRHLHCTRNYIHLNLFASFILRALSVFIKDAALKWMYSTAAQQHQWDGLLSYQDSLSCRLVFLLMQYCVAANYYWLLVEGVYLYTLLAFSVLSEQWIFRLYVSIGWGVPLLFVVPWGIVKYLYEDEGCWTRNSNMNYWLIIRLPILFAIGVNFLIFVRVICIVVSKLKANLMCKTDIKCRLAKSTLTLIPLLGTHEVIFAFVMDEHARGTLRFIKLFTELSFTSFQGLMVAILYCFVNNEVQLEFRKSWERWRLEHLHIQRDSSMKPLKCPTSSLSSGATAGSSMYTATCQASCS

Work on `O=C(O)c1ccc2nc(CN3CC[C@H](Oc4ccnc(COc5ccc(Cl)cc5F)c4)C3)n(C[C@@H]3CCO3)c2c1` [Compound 289, 2-{[(3S)-3-({2-[(4-chloro-2-fluorophenoxy)methyl]pyridin-4-yl}oxy)pyrrolidin-1-yl]methyl}-1-{[(2S)-oxetan-2-yl]methyl}-1H-1,3-benzodiazole-6-carboxylic acid] yielded an EC50 of less than 50 nM.
